Publication PMC6704710, “Preclinical evaluation of 3D185, a novel potent inhibitor of FGFR1/2/3 and CSF-1R, in FGFR-dependent and macrophage-dominant cancer models” (Journal of Experimental & Clinical Cancer Research : CR, 2019)

How the values were obtained:
Experiment in all cases: Eurofins kinase panel
Type in all cases: biochemical
Fms(h) = Fms(h) (Homo sapiens, UniProt P07333)
IR(h), activated = target: T1, IR(h), activated (Homo sapiens, UniProt P06213); conditions: read-out: Inhibition rate (%)
T1 construct: purchased Eurofins (KinaseProfiler)

Rsk2(h) = target: T2, Rsk2(h) (Homo sapiens, UniProt P51812); conditions: read-out: Inhibition rate (%)
T2 construct: purchased Eurofins (KinaseProfiler)

EphA1(h) = target: T3, EphA1(h) (Homo sapiens, UniProt P21709); conditions: read-out: Inhibition rate (%)
T3 construct: purchased Eurofins (KinaseProfiler)
T3 sequence (P21709 26-976): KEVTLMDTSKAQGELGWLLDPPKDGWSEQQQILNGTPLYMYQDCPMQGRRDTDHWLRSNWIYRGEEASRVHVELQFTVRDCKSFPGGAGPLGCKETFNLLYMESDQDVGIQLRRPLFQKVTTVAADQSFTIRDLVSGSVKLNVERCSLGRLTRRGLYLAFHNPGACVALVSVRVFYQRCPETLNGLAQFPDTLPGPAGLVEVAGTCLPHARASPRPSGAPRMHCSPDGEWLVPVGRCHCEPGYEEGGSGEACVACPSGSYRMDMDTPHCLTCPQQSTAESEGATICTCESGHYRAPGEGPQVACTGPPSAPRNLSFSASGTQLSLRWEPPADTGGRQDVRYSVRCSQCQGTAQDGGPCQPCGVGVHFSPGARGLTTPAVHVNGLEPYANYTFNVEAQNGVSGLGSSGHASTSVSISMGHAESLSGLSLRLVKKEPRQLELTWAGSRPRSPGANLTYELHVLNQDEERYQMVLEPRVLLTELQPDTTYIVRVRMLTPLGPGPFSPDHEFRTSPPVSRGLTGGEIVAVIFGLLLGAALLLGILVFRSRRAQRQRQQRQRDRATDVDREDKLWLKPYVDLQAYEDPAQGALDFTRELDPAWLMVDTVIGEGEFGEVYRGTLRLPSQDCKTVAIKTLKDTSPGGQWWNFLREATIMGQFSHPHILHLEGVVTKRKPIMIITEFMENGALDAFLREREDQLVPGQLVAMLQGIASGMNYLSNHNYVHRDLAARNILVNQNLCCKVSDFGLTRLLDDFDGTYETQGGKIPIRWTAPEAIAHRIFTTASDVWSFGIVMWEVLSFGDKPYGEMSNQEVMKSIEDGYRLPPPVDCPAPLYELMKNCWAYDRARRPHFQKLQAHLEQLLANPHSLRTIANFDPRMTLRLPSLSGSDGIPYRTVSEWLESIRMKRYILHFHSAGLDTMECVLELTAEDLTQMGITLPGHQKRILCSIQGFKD

MST2(h) = target: T4, MST2(h) (Homo sapiens, UniProt Q13188); conditions: read-out: Inhibition rate (%)
T4 construct: purchased Eurofins (KinaseProfiler)
T4 sequence (Q13188 1-491): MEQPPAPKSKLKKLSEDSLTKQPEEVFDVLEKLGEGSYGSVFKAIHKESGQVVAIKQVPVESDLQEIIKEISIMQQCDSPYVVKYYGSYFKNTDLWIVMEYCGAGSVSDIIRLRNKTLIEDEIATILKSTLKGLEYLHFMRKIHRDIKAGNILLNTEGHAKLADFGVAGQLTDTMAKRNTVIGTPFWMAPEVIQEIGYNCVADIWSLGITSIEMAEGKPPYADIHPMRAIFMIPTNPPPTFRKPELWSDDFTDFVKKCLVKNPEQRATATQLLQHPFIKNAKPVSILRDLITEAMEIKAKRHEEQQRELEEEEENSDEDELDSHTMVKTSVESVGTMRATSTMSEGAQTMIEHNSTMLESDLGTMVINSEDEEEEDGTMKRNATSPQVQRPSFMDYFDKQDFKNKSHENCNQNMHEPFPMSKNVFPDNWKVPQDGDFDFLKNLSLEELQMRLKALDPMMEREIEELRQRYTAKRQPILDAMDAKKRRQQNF

CK1γ3(h) = target: T5, CK1γ3(h) (Homo sapiens, UniProt Q9Y6M4); conditions: read-out: Inhibition rate (%)
T5 construct: purchased Eurofins (KinaseProfiler)

CLK4(h) = target: T6, CLK4(h) (Homo sapiens, UniProt Q9HAZ1); conditions: read-out: Inhibition rate (%)
T6 construct: purchased Eurofins (KinaseProfiler)

FGFR1(h) = FGFR1(h) (Homo sapiens, UniProt P11362)
Sequence of FGFR1(h) (P11362 22-822): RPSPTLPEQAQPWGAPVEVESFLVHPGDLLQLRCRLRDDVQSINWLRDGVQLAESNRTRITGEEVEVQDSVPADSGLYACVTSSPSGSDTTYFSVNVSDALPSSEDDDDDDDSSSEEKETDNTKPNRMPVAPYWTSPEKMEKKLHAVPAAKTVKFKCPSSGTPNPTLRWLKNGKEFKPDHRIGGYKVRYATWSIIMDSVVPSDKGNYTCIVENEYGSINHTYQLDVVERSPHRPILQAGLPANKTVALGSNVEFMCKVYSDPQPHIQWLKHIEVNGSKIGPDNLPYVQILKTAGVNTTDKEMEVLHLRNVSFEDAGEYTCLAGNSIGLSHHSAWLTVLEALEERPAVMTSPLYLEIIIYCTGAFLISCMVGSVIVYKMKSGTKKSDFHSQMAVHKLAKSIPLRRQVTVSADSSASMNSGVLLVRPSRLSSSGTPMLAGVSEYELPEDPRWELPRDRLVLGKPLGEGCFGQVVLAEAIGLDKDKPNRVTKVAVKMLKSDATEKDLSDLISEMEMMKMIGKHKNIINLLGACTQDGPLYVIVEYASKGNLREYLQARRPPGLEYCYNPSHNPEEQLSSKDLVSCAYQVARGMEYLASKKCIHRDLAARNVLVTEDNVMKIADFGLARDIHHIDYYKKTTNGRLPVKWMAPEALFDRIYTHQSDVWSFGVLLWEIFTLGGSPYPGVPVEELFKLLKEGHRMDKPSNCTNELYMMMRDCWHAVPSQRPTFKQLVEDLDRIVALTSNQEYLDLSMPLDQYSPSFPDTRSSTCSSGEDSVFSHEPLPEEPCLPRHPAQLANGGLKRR

T2 sequence (P51812 whole entry): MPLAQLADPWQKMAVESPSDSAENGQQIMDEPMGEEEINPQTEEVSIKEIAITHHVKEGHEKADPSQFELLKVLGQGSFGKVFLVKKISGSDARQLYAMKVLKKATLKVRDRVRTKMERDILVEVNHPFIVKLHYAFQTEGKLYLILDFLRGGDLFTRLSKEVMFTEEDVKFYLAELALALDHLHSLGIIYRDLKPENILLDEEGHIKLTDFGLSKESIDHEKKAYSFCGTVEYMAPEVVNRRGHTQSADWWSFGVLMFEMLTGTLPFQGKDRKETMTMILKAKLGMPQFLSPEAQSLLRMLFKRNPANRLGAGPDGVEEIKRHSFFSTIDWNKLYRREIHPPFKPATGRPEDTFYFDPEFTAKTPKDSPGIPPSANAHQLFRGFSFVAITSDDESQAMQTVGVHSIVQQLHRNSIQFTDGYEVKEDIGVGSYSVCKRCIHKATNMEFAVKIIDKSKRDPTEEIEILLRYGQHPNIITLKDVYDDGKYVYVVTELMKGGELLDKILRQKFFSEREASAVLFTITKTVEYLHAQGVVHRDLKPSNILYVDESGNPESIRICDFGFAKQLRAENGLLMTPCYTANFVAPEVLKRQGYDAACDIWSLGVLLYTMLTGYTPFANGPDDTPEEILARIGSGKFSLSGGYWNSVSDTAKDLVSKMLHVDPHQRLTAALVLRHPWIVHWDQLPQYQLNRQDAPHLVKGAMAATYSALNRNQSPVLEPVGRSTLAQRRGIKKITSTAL
Sequence of Fms(h) (P07333 20-972): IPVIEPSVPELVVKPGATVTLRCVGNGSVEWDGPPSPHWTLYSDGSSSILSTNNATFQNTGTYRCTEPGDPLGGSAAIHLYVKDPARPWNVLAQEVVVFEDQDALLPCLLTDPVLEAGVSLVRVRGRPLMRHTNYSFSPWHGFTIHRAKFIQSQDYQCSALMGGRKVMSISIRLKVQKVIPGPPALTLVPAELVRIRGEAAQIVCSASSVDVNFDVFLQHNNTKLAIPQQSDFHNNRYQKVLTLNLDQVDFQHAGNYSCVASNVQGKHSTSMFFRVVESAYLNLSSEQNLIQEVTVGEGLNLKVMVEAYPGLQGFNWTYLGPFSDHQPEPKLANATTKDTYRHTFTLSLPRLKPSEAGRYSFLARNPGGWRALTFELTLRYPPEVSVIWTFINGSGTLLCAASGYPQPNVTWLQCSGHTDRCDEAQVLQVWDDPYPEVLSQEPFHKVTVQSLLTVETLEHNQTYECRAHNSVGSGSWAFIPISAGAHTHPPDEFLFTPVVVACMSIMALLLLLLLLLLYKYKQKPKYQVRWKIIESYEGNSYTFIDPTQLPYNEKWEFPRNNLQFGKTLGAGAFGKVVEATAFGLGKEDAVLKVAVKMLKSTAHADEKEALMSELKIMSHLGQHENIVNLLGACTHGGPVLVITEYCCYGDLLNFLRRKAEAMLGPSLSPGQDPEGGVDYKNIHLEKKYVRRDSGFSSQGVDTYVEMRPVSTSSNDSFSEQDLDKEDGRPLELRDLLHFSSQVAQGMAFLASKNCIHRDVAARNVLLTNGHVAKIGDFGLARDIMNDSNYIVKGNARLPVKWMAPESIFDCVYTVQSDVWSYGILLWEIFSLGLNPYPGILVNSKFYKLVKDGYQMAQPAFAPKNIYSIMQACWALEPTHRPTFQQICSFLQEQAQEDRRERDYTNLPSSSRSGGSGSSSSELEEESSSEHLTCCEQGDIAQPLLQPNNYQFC
T1 sequence (P06213 28-1382): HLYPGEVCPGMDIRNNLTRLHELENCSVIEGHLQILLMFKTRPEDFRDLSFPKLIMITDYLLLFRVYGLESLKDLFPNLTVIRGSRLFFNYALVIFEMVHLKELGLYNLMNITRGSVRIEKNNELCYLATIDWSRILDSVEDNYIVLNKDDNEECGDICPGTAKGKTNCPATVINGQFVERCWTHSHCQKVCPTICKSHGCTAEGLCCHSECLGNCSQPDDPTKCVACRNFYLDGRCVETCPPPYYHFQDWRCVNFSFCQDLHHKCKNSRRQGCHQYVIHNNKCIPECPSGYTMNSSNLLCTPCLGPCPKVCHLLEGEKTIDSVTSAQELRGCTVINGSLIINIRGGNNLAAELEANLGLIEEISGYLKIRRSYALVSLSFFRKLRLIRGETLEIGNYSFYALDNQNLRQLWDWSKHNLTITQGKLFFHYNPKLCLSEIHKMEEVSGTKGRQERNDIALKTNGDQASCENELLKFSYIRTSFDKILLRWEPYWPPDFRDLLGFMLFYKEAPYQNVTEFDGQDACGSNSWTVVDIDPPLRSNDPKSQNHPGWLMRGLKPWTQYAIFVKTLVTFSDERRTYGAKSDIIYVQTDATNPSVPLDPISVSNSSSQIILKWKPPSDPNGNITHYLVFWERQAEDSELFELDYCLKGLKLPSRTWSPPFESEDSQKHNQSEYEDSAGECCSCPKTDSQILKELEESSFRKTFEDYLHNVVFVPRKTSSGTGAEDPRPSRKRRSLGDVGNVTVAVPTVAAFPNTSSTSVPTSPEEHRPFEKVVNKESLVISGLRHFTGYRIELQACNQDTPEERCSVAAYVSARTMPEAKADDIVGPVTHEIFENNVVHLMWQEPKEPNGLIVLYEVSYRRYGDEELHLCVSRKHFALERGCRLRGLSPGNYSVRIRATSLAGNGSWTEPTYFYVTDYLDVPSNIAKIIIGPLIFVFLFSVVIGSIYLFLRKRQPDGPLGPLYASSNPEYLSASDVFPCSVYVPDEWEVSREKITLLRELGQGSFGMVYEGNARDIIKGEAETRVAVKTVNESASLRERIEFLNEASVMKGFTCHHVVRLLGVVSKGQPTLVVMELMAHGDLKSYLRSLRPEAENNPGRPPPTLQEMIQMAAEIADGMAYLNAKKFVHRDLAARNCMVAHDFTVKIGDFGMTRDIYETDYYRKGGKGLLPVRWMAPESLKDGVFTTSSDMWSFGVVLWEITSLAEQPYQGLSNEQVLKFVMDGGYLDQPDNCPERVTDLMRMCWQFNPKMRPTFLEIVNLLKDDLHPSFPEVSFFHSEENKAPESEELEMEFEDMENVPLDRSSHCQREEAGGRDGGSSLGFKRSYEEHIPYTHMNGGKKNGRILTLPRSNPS
T5 sequence (Q9Y6M4 whole entry): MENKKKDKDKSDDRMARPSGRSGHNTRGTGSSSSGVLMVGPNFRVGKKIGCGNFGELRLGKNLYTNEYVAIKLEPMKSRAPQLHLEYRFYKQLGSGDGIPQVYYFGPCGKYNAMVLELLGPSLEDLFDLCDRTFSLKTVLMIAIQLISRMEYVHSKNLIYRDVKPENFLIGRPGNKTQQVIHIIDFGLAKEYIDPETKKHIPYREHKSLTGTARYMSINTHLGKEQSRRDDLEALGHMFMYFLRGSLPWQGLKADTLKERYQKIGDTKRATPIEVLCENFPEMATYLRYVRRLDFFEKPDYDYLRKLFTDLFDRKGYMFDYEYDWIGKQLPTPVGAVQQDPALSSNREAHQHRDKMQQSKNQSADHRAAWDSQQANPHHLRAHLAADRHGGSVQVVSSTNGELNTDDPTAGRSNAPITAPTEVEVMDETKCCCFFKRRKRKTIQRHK
T6 sequence (Q9HAZ1 whole entry): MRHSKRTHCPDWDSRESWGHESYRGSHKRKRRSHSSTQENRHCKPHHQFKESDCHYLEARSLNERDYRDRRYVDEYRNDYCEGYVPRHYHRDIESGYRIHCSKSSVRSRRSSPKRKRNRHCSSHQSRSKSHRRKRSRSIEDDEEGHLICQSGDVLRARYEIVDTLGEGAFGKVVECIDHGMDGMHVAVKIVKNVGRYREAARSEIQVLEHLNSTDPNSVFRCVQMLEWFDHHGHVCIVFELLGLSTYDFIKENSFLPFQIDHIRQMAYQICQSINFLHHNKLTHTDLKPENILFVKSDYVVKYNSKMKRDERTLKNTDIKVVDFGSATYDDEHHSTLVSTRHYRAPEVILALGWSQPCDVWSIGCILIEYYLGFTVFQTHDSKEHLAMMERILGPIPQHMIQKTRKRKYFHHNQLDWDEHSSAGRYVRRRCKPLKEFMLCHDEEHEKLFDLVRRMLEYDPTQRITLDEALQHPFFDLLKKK

**Q.** What does the source list for `COc1cc(OC)c(Cl)c(-c2ccc3c(NC(=O)c4ccc(N5CCNC(C)(C)C5)cc4)n[nH]c3n2)c1Cl` [3D185]?
**A.** IC50 (Fms(h); CSF-1R, estimated from 372-kinase panel): < 0.01 µM; inhibition at 0.01 µM (Fms(h); read-out: Inhibition rate (%)): 75%; inhibition at 0.1 µM (Fms(h); read-out: Inhibition rate (%)): 93%; inhibition at 1 µM (Fms(h); read-out: Inhibition rate (%)): 96%; inhibition at 0.01 µM (IR(h), activated; 10 nM): 9%; inhibition at 0.1 µM (IR(h), activated; 100 nM): 42%; inhibition at 1 µM (IR(h), activated; 1000 nM): 85%; inhibition at 0.01 µM (Rsk2(h); 10 nM): -19%; inhibition at 0.1 µM (Rsk2(h); 100 nM): 0%; inhibition at 1 µM (Rsk2(h); 1000 nM): 24%; inhibition at 0.01 µM (EphA1(h); 10 nM): 0%; inhibition at 0.1 µM (EphA1(h); 100 nM): -14%; inhibition at 1 µM (EphA1(h); 1000 nM): -6%; inhibition at 0.01 µM (MST2(h); 10 nM): 16%; inhibition at 0.1 µM (MST2(h); 100 nM): 41%; inhibition at 1 µM (MST2(h); 1000 nM): 65%; inhibition at 0.01 µM (CK1γ3(h); 10 nM): 1%; inhibition at 0.1 µM (CK1γ3(h); 100 nM): -10%; inhibition at 1 µM (CK1γ3(h); 1000 nM): 12%; inhibition at 0.01 µM (CLK4(h); 10 nM): 5%; inhibition at 0.1 µM (CLK4(h); 100 nM): 19%; inhibition at 1 µM (CLK4(h); 1000 nM): 27%; IC50 (FGFR1(h); estimated from 372-kinase panel): < 0.01 µM; inhibition at 0.01 µM (FGFR1(h); read-out: Inhibition rate (%)): 99%; inhibition at 0.1 µM (FGFR1(h); read-out: Inhibition rate (%)): 98%; inhibition at 1 µM (FGFR1(h); read-out: Inhibition rate (%)): 100%
